Measured values: US20220041641A1, “QUATERNARY AMMONIUM SALTS AS INHIBITORS OF TRIMETHYLAMINE PRODUCTION” (Senda Biosciences, Inc., priority 2018, published 2022)
pIC50: −log10 of the molar value. Structures can show the parent of a compound that is named as a salt. Where two headings read alike, the source gives them in different places.

Molecular target: CutC from Proteus mirabilis (Proteus mirabilis, UniProt B4EYG1)
Assay: Cell-based assay for TMA production from a native producer (P. mirabilis)
From the text: In each bacterium, CutC was modified into its activated form by a cognate activating enzyme, CutD (protein EDU36696.1 for C. sporogenes; protein WP_004249185.1 for P. mirabilis). […] Trimethylamine may subsequently be converted by human enzymes such as flavin monooxygenase 3 to trimethylamine N-oxide, which might be associated with negative health consequences in humans.
A compound's ability to inhibit CutC from Proteus mirabilis and C. sporogenes from converting choline into trimethylamine was tested in cells as described. A BHI blood plate was inoculated with a frozen stock of Proteus mirabilis or Clostridium sporogenes under anaerobic conditions. A single colony was isolated from the plate and inoculated into 5 mL BHI supplemented with 1 mM choline under anaerobic conditions. The liquid cultures were grown overnight at 37° C.
To prepare each sample, 300 μL of the saturated culture was then inoculated into a 30 mL dilution blank under anaerobic conditions. 1 mM (trimethyl-d9)-choline and a sufficient amount of a compound to obtain a final concentration of 10 μM were added to the inoculated dilution blank. […] The mixture was incubated at 37° C. for 5 h. […] After centrifugation, the samples were analyzed by LCMS to determine the amount of d9-TMA produced.

[1] = d9-TMA from 1 mM d9-choline, 5 h, 37° C.; value 10 given when no fit or % TMA remaining at 10 μM higher than 15%; read-out: Average IC50 Whole cell P. mirabilis
[2] = read-out: Average IC50 Whole cell P. mirabilis; d9-TMA from 1 mM d9-choline, 5 h, 37° C.; value 10 given when no fit or % TMA remaining at 10 μM higher than 15%

Chain of CutC from Proteus mirabilis (B4EYG1 entry or part of it): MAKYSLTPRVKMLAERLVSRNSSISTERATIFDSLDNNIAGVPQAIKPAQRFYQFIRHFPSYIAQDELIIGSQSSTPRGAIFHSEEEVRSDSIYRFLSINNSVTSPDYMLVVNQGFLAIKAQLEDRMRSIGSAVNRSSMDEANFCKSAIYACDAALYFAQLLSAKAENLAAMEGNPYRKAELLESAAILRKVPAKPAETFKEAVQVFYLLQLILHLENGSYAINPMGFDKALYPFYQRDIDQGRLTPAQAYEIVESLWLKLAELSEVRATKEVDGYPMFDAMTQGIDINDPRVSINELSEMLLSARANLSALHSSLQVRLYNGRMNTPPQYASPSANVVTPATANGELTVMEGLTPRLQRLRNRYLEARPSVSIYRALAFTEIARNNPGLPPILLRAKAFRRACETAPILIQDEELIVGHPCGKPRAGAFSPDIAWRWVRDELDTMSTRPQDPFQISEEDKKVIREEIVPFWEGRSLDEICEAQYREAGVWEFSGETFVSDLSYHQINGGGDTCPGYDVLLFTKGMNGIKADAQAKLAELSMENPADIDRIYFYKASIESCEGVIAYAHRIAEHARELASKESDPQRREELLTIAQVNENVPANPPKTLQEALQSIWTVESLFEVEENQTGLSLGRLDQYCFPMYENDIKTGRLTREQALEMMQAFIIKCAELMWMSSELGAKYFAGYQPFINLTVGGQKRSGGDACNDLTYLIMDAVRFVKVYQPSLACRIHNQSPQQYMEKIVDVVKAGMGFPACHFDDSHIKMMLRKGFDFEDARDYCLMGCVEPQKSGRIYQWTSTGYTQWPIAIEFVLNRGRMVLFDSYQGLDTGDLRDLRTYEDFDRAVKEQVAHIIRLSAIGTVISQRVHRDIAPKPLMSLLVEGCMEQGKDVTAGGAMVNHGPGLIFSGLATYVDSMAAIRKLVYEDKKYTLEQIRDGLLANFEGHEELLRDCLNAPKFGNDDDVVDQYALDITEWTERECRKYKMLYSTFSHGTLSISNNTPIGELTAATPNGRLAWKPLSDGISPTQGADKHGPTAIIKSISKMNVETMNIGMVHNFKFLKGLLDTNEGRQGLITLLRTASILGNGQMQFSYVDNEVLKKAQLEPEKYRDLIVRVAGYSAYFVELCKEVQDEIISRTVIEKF
Chain of CutC from Proteus mirabilis (B4EYG0 entry or part of it, further chain): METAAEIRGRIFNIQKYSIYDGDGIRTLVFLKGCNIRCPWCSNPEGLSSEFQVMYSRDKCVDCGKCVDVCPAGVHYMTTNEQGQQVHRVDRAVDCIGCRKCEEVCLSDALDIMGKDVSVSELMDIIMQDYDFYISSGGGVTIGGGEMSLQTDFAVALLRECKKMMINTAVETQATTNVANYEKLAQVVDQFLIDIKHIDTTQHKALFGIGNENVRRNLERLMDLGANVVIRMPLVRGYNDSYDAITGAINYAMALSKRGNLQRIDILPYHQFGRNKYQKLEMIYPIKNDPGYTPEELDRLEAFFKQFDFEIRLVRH

SMILES: C#CC[N+](C)(C)CC(=O)O[C@H]1CO[C@H]2[C@@H]1OC[C@H]2OC(=O)C[N+](C)(C)CC#C [Compound 69, N,N′-((((3R,3aR,6S,6aR)-hexahydrofuro[3,2-b]furan-3,6-diyl)bis(oxy))bis(2-oxoethane-2,1-diyl))bis(N,N-dimethylprop-2-yn-1-aminium) bistrifluoroacetate]
- pIC50 [1]: ≤ 5.00

SMILES: C#CC[N+](C)(C)CCO[C@H]1CO[C@H]2[C@@H]1OC[C@H]2OCC[N+](C)(C)CC#C [Compound 71, N,N′-((((3R,3aR,6S,6aR)-hexahydrofuro[3,2-b]furan-3,6-diyl)bis(oxy))bis(ethane-2,1-diyl))bis(N,N-dimethylprop-2-yn-1-aminium) bistrifluoroacetate]
- pIC50 [1]: ≤ 5.00

SMILES: C#CC[N+](C)(C)CCO[C@@H]1O[C@H](CO)[C@@H](O)[C@H](O)[C@H]1O [Compound 106, N,N-dimethyl-N-(2-(((3R,4S,5S,6R)-3,4,5-trihydroxy-6-(hydroxymethyl)tetrahydro-2H-pyran-2-yl)oxy)ethyl)prop-2-yn-1-aminium 2,2,2-trifluoroacetate]
- pIC50 [1]: ≤ 5.00

SMILES: C[N+](C)(C)CCC[PH](=O)O [Compound 147, 3-(hydroxyhydrophosphoryl)-N,N,N-trimethylpropan-1-aminium Chloridechloridechloridechloridechloride]
- pIC50 [2]: ≤ 5.00

SMILES: C[N+]12CCC(CC1)[C@H](O)C2 [Compound 148, (1s,4s)-3-hydroxy-1-methylquinuclidin-1-ium]
- pIC50 [1]: ≤ 5.00

SMILES: C[N+]12CCC(O)(CC1)CC2 [Compound 149, 4-hydroxy-1-methylquinuclidin-1-ium]
- pIC50 [1]: ≤ 5.00

SMILES: C#CC[C@@H](C(=O)O)[N+](C)(C)C [Compound 152, (S)-1-carboxy-N,N,N-trimethylbut-3-yn-1-aminium Iodide]
- pIC50 [1]: ≤ 5.00

SMILES: C#CC[N+](C)(CF)CCO (stereo not drawn) [Compound 153, N-(fluoromethyl)-N-(2-hydroxyethyl)-N-methylprop-2-yn-1-aminium Iodide]
- pIC50 [1]: 7.70

SMILES: C#CC[N+]1(CCO)CCCCC1 [Compound 154, 1-(2-hydroxyethyl)-1-(prop-2-yn-1-yl)piperidin-1-ium Bromide]
- pIC50 [1]: ≤ 5.00

SMILES: C=C(C[N+](C)(C)C)C(=O)O [Compound 155, 2-carboxy-N,N,N-trimethylprop-2-en-1-aminium Bromide]
- pIC50 [1]: 5.59

SMILES: C=C(C[N+](C)(C)CC(=C)C(=O)O)C(=O)O [Compound 156, 2-carboxy-N-(2-carboxyallyl)-N,N-dimethylprop-2-en-1-aminium Bromide]
- pIC50 [1]: ≤ 5.00

SMILES: C[N+](C)(CCO)CCO [Compound 157, 2-hydroxy-N-(2-hydroxyethyl)-N,N-dimethylethan-1-aminium Iodide]
- pIC50 [1]: ≤ 5.00

SMILES: C#CC[N+]1(CC(=O)O)CCCCC1 [Compound 160, 1-(carboxymethyl)-1-(prop-2-yn-1-yl)piperidin-1-ium bromide]
- pIC50 [1]: ≤ 5.00

SMILES: C[N+]1(CF)CCCC[C@@H]1CO (stereo partly drawn) [Compound 161, (2R)-1-(fluoromethyl)-2-(hydroxymethyl)-1-methylpiperidin-1-ium Iodide]
- pIC50 [1]: ≤ 5.00

SMILES: C#CC[N+](C)(C)C[C@@H](C)C(=O)O [Compound 162, (R)—N-(2-carboxypropyl)-N,N-dimethylprop-2-yn-1-aminium Chloride]
- pIC50 [1]: 6.54

SMILES: C#CC[N+]1(CF)CCCCC1 [Compound 164, 1-(fluoromethyl)-1-(prop-2-yn-1-yl)piperidin-1-ium Iodide]
- pIC50 [1]: ≤ 5.00

SMILES: C#CC[N+](C)(C)CC#C [Compound 165, N,N-dimethyl-N-(prop-2-yn-1-yl)prop-2-yn-1-aminium Bromide]
- pIC50 [1]: 5.67

SMILES: C#CC[N+](C)(C)C[C@H](C)C(=O)O [Compound 166, (S)—N-(2-carboxypropyl)-N,N-dimethylprop-2-yn-1-aminium Chloride]
- pIC50 [1]: 5.90

SMILES: C=C(CO)C[N+](C)(C)C [Compound 167, (3-hydroxy-2-methylidenepropyl)trimethylazanium trifluoroacetate]
- pIC50 [1]: ≤ 5.00

SMILES: C#CC[N+](C)(C)CC#N [Compound 168, (cyanomethyl)dimethyl(prop-2-yn-1-yl)azanium Bromide]
- pIC50 [1]: 6.06

SMILES: C[N+](C)(C)CC#N [Compound 169, (cyanomethyl)trimethylazanium Iodide]
- pIC50 [1]: ≤ 5.00

SMILES: C=C(C[N+](C)(C)CF)C(=O)O [Compound 171, (2-carboxy-2-methylideneethyl)(fluoromethyl)dimethylazanium Iodide]
- pIC50 [1]: ≤ 5.00

SMILES: C[N+](CF)(CCO)C1CC1 (stereo not drawn) [Compound 172, N-(fluoromethyl)-N-(2-hydroxyethyl)-N-methylcyclopropanaminium Iodide]
- pIC50 [1]: ≤ 5.00

SMILES: C[N+](C)(CCO)Cc1ccccc1 [Compound 173, benzyl(2-hydroxyethyl)dimethylazanium]
- pIC50 [1]: ≤ 5.00

SMILES: C#CC[N+](C)(C)C[C@@H](C)C(=O)OC [Compound 174, [(2R)-3-methoxy-2-methyl-3-oxopropyl]dimethyl(prop-2-yn-1-yl)azanium]
- pIC50 [1]: 6.77

SMILES: C#CC[N+](C)(C)C[C@H](C)C(=O)OC [Compound 175, [(2S)-3-methoxy-2-methyl-3-oxopropyl]dimethyl(prop-2-yn-1-yl)azanium]
- pIC50 [1]: 6.77

SMILES: CC1OC1C[N+](C)(C)C (stereo not drawn) [Compound 176, trimethyl[(3-methyloxiran-2-yl)methyl]azanium]
- pIC50 [1]: ≤ 5.00

SMILES: C#CC[N+](C)(C)Cc1nnn[nH]1 [Compound 177, dimethyl(prop-2-yn-1-yl)[(1H-1,2,3,4-tetrazol-5-yl)methyl]azanium]
- pIC50 [1]: 5.12

SMILES: C[N+](C)(C)CC1CC1 [Compound 178, (cyclopropylmethyl)trimethylazanium Iodide]
- pIC50 [1]: ≤ 5.00

SMILES: C#CC[N+](C)(C)CF [Compound 179, (fluoromethyl)dimethyl(prop-2-yn-1-yl)azanium Iodide]
- pIC50 [1]: 6.96

SMILES: C[N+](C)(C)CCCl [Compound 180]
- pIC50 [2]: < 5.00

SMILES: C#CC[N+](C)(C)CC1OC1C (stereo not drawn) [Compound 181, dimethyl[(3-methyloxiran-2-yl)methyl](prop-2-yn-1-yl)azanium]
- pIC50 [1]: < 5.00

SMILES: C=CC[N+](C)(C)CCO [Compound 182, (2-hydroxyethyl)dimethyl(prop-2-en-1-yl)azanium Bromide]
- pIC50 [1]: 5.50

SMILES: C#CC[N+](C)(C)CCN [Compound 183, (2-aminoethyl)dimethyl(prop-2-yn-1-yl)azanium]
- pIC50 [1]: < 5.00

SMILES: C[N+](C)(CCO)CC1COC1 [Compound 184, (2-hydroxyethyl)dimethyl[(oxetan-3-yl)methyl]azanium Bromide]
- pIC50 [1]: < 5.00

SMILES: C[N+](C)(CCO)CCF [Compound 186, (2-fluoroethyl)(2-hydroxyethyl)dimethylazanium]
- pIC50 [2]: < 5.00

SMILES: C#CC[N+]1(CF)CCCC1 [Compound 187, 1-(fluoromethyl)-1-(prop-2-yn-1-yl)pyrrolidin-1-ium]
- pIC50 [1]: 6.12

SMILES: C#CC[N+]1(CC#C)CCCC1 [Compound 188, 1,1-bis(prop-2-yn-1-yl)pyrrolidin-1-ium Bromidebromide]
- pIC50 [1]: < 5.00

SMILES: C=C(C[N+](C)(C)CC#N)C(=O)OC [Compound 189, N-(cyanomethyl)-2-(methoxycarbonyl)-N,N-dimethylprop-2-en-1-aminium Bromide]
- pIC50 [1]: < 5.00

SMILES: C#CC[N+](C)(C)CC1(C(=O)OC)CC1 [Compound 190, N-((1-(methoxycarbonyl)cyclopropyl)methyl)-N,N-dimethylprop-2-yn-1-aminium Bromide]
- pIC50 [1]: 5.89

SMILES: C#CC[N+](C)(C)CCOCCO [Compound 191, [2-(2-hydroxyethoxy)ethyl]dimethyl(prop-2-yn-1-yl)azanium]
- pIC50 [1]: 5.66

SMILES: C#CC[N+](C)(C)CCNC(=O)OC(C)(C)C [Compound 192, tert-butyl N-{2-[dimethyl(prop-2-yn-1-yl)azaniumyl]ethyl}carbamate Bromide]
- pIC50 [1]: < 5.00

SMILES: C[N+](C)(CCO)C(F)F [Compound 193, (difluoromethyl)(2-hydroxyethyl)dimethylazanium]
- pIC50 [1]: 5.86

SMILES: C[N+](C)(CCO)CC1CCC1 [Compound 194, (cyclobutylmethyl)(2-hydroxyethyl)dimethylazanium Bromide]
- pIC50 [1]: < 5.00

SMILES: CSC[N+](C)(C)CCO [Compound 195, (2-hydroxyethyl)dimethyl[(methylsulfanyl)methyl]azanium]
- pIC50 [1]: < 5.00

SMILES: C#CC[N+](C)(C)CSC [Compound 196, dimethyl[(methylsulfanyl)methyl](prop-2-yn-1-yl)azanium]
- pIC50 [1]: 5.11

SMILES: C#CC[N+](C)(C)CC(C)=O [Compound 197, dimethyl(2-oxopropyl)(prop-2-yn-1-yl)azanium Bromide]
- pIC50 [1]: 5.30

SMILES: C[N+](C)(CCO)CCCl [Compound 198, (2-chloroethyl)(2-hydroxyethyl)dimethylazanium Iodide]
- pIC50 [2]: < 5.00

SMILES: C[N+](C)(CCO)C1CCC1 [Compound 199, N-(2-hydroxyethyl)-N,N-dimethylcyclobutanaminium]
- pIC50 [1]: < 5.00

SMILES: C#CC[N+]1(CC#C)CC[C@@H](O)C1 [Compound 200, (3R)-3-hydroxy-1,1-bis(prop-2-yn-1-yl)pyrrolidin-1-ium]
- pIC50 [1]: 5.56

SMILES: C#CC[N+]1(CC#C)CCCN1 [Compound 201, 1,1-bis(prop-2-yn-1-yl)pyrazolidin-1-ium Bromide]
- pIC50 [1]: < 5.00
